{"source": "patent US12180084B2", "about": "“Cerium (III) carbonate formulations” (THE REGENTS OF THE UNIVERSITY OF CALIFORNIA, priority 2019, dated 2024)", "key": {"[1]": {"test": "CR dye photodegradation in ZnO-based sunscreen film (Neutrogena Sheer Zinc Face Mineral Sunscreen SPF 50)", "conditions": "1.5 wt. % added agent relative to sunscreen weight", "description": "Therefore, the extent of photodegradation upon UV irradiation in a photoreactor, using the same setup and ZnO-based sunscreen formulation (Neutrogena Sheer Zinc Face™ Mineral Sunscreen SPF 50) as in Examples 7.1 and 7.2 above, except now using Congo Red (CR) rather than MB dye was investigated. For this investigation, a homogeneous composite mixture was prepared by mixing the ZnO-based (Neutrogena Sheer Zinc Face™ Mineral Sunscreen SPF 50) sunscreen, and CR dye in the similar way as described in Example 7.1 for MB, except now using 10^−3 M CR dye (0.6 mL) instead of 10^−3 M MB dye (0.6 mL). Similarly, a composite sunscreen mixture comprising UV-protecting agent was prepared with synthesized Ce2(CO3)3·6H2O (1.5 wt. % relative to sunscreen weight), following the procedure of Example 7.2. The investigation of CR dye photodegradation in sunscreen films, was also conducted in similar fashion as described in Examples 7.1 for the case of no added UV-protecting agent and 7.2 for the case of added Ce2(CO3)3·6H2O UV-protecting agent, except for the following changes. First, the CR sunscreen films were salmon colored on the same filter paper, and the duration of UV-irradiation in the photoreactor was 5 h instead of 4 h. Second, 2 mL of N,N-dimethylformamide was used for CR dye extraction, instead of 2 mL of ethanol as used for MB dye extraction. […]"}, "[2]": {"test": "MB dye photodegradation in octacrylene-based sunscreen film (Blue Lizard Kids Australian Sunscreen SPF 30+)", "conditions": "1.5 wt. % added agent", "description": "Films on filter paper were fabricated and photoreactor experiments were conducted exactly the same way as described in Example 7.2, using MB dye, except UV irradiation in the photoreactor was conducted for a period of 4 h. These films contained either no UV-protecting agent, or 1.5 wt. % of Ce2(CO3)3·6H2O that was synthesized according to Example 3. The slurry formulation for film fabrication, photoexposure to UV light, and MB dye extraction in ethanol were performed similar to Example 7.2, except Blue Lizard® Kids Australian Sunscreen SPF 30+ was used.\nA 30 nm blue-shift of the wavelength of the absorbance maximum was observed (from 654 nm initially to 624 nm after 4 h of UV irradiation in the photoreactor). The degree of photodegradation was calculated by UV-visible spectrophotometry, by assuming the same extinction coefficient at 654 nm before UV irradiation and 624 nm after 4 h of UV irradiation in the photoreactor. Data in FIG. 25A corresponds to 64% MB dye photodegradation."}, "[3]": {"tested_on": "RBL-2H3 rat-cell line", "test": "Toxicity of mammalian cells to cerium carbonate, microscopy imaging", "type": "cell-based", "conditions": "10 microliter of 1 mg in 1 mL water dispersion, imaging 20 min after addition", "description": "A RBL-2H3 rat-cell line was used from the Berkeley cell-culture facility. […] Prior to microscopy imaging, cells were stored under 5% CO2 in air atmosphere at 37° C. A 10 microliter aliquot of an aqueous dispersion comprising 1 mg of cerium carbonate Ce2(CO3)3·6H2O (micron sized) in 1 mL of deionized water was added to the RBL-2H3 cells in the Petri dish. Microscopy imaging of the cells was performed before and 20 min after addition of the cerium carbonate. […] This viability of the cells appears to be similar both before and after treatment with cerium carbonate Ce2(CO3)3·6H2O (micron sized)."}, "[4]": {"test": "MB dye photodegradation in ZnO-based sunscreen film (Neutrogena Sheer Zinc Face Mineral Sunscreen SPF 50)", "description": "A commercial ZnO-based sunscreen (Neutrogena Sheer Zinc Face™ Mineral Sunscreen SPF 50 consisting of 21.6% of ZnO solid as the only listed active ingredient) was mixed with Methylene Blue (MB) organic dye as follows. In a plastic cup, (10 g capacity; obtained from Flacktek Inc. USA), sunscreen (3 g; Neutrogena Sheer Zinc Face™ Mineral Sunscreen SPF 50) and an aqueous solution of 10^−3 M MB dye (0.6 mL) was mixed with a spatula for 3 minutes. Immediately afterwards, the mixture was high sheared in a Flactek high-speed mixer at 3500 rpm for 3 min. […] These wet drawn down coupons were treated with UV radiation in a photoreactor, without drying, for varying times and were subsequently directly extracted. The extraction employed ethanol solvent to remove MB dye and permit its quantification prior/post UV radiation exposure, so as to determine the extent of MB dye degradation by subtraction. Specifically, to accomplish this, two small strips (100 mg of each) were cut from the wet drawn-down coupons with a scissor/sharp blade so as to not smudge the film of applied sunscreen, and these strips were subsequently exposed to UV radiation in a photoreactor. The photoreactor was equipped with 14 UV-lamps of 254 nm wavelength and delivering a power of 145-155 lux for 4 h. The relative humidity during UV-exposure was controlled to be 100% by placing a water-filled Petri dish (200 mL capacity) in the photoreactor chamber for at least 16 h prior to start of photocatalysis experiment. […] This resulting clear ethanol solution of MB dye was used for measurement of the MB dye concentration UV-visible spectrophotometry, using the absorbance maximum at 654 nm. A control experiment was similarly performed to quantify amount of MB dye from sunscreen films which never underwent UV-radiation exposure (t=0 time point). […] The extent of dye photodegradation was determined by calculating the percentage of decrease in the absorbance intensity of dye at the wavelength of maximum absorption. […]"}}}
{"smiles": "O.O.O.O.O.O.O=C([O-])[O-].O=C([O-])[O-].O=C([O-])[O-].[Ce+3].[Ce+3]", "note": "[Ce2(CO3)3·6H2O]", "values": [{"measurement": "% of CR dye photodegradation after 5 h of UV irradiation in photoreactor", "setting": "[1]", "result": "9±1", "unit": "%"}, {"measurement": "% of CR dye photodegradation after 5 h of UV irradiation in photoreactor", "setting": "[1]; listed as Ce2(CO3)3•6H2O synthesized according to Example 3", "result": "9 ± 1", "unit": "%"}, {"measurement": "MB dye degradation after 4 h of UV irradiation in photoreactor", "setting": "[2]", "result": 45, "unit": "%"}, {"measurement": "toxicity to cells (cell shape, viability)", "setting": "[3]", "result": "generally non-toxic to the cells"}, {"measurement": "% of MB dye photodegradation after 4 h of UV irradiation in photoreactor", "setting": "[4]; 0.5 wt. % added agent relative to sunscreen weight", "result": "36%±2"}, {"measurement": "% of MB dye photodegradation after 4 h of UV irradiation in photoreactor", "setting": "[4]; 0.5 wt. % added agent relative to sunscreen weight, listed as Ce2(CO3)3•6H2O synthesized according to Example 3", "result": "36 ± 2", "unit": "%"}, {"measurement": "% of MB dye photodegradation after 4 h of UV irradiation in photoreactor", "setting": "[4]; 1.5 wt. % added agent relative to sunscreen weight", "result": "25%±2"}]}
